The target in assay [1] is T1, Corticotropin-releasing factor receptor 2/Corticotropin-releasing factor-binding protein (Homo sapiens, UniProt P24387+Q13324).
T1 sequence (Q13324 whole entry): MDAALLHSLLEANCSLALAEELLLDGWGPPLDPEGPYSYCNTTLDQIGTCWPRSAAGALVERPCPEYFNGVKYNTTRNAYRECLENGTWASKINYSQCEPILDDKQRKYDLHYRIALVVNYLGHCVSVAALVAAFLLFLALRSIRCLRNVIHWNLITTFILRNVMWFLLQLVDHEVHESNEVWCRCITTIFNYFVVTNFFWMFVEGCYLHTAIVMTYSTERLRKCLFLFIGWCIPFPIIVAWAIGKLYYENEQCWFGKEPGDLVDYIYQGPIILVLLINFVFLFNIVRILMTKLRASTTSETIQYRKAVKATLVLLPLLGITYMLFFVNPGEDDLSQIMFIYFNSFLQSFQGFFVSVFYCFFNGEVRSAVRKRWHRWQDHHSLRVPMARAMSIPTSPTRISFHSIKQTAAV
T1 sequence (P24387 whole entry): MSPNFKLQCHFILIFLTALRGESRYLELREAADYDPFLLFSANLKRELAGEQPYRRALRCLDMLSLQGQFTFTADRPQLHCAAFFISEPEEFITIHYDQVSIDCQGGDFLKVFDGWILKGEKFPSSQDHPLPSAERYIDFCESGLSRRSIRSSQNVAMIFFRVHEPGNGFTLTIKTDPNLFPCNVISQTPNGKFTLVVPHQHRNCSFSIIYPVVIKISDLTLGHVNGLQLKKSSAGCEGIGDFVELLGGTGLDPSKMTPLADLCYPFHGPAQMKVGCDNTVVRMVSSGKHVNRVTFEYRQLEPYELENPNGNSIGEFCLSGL
Description: Dose Response confirmation of uHTS hits for small molecule antagonists of the CRF-binding protein and CRF-R2 receptor complex. The following applies: read-out: IC50_Mean. It is filed as functional.

Another assay addresses Cytochrome P450 2C9 (Homo sapiens, UniProt P11712).
Assay [2] concerns the target T1, Corticotropin-releasing factor receptor 2/Corticotropin-releasing factor-binding protein. Description: activators of CRF receptor 2 with binding protein – uHTS hits, confirmation (AID 602473). The assay is classed as functional. Conditions: read-out: EC50_Mean.
The next assay deals with H4. Description: Luminescence Cell-Based Dose Response HTS to Identify Activators of 5'UTR Stem-Loop Driven Prion Protein mRNA Translation in H4 Neuroglioblastoma Cells. [Related pubchem assays: 1829 (Project Summary), 1814 (Primary HTS)]. The assay is classed as functional. Conditions: Homo sapiens.
A short description of assay [3]: Luminescence Cell-Based Dose Response HTS to Identify Activators of Luciferase Translation or Activity in H4 […] Cells. [Related pubchem assays: 1829 (Project Summary), 1814 (Primary HTS)]. It is filed as functional.
Assay [4] can be described thus: Luminescence Cell-Based Dose Confirmation HTS to Identify Activators of 5'UTR Stem-Loop Driven Alpha-Synuclein mRNA Translation in H4 Neuroglioblastoma Cells. [Related pubchem assays: 1829 (Project Summary), 1814 (Primary HTS)]. The assay is classed as functional.
Assay [5] can be described thus: inhibitors of intracellular T. cruzi replication, confirmation, NIH3T3 host cells, beta-gal luminescence (AID 2044).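 Note: intracellular parasites grown in NIH/3T3 mouse fibroblasts as host cells; luminescent beta-galactosidase reporter signal from transgenic T. cruzi replicating inside host cells; inhibitors lower the luminescence signal.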 The assay is classed as functional, cell-based.
Assay [6] in a line: cytotoxicity toward NIH3T3 fibroblasts, dose response, counter-screen, cell-based, ATP luminescence, mouse fibroblasts (AID 2010).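 Note: cells exposed to compound for about 90 hours before reading.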 It is filed as functional. (The purpose of a counterscreen is to sort out artefacts and off-target activity.)
The subject of the next assay is INS1. Description: beta cell apoptosis inhibitors, cytokine rescue, dose response, luminescence, retest (AID 449756).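 Note: cell death triggered by IL-1 beta plus TNF-alpha plus IFN-gamma mixture; protective hits raise ATP signal compared with cytokine alone wells.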 Conditions: Rattus norvegicus. The assay is classed as functional, cell-based.
The target of assay [7] is T2, Heat shock factor protein 1 (Mus musculus, UniProt P38532).
T2 sequence (P38532 whole entry): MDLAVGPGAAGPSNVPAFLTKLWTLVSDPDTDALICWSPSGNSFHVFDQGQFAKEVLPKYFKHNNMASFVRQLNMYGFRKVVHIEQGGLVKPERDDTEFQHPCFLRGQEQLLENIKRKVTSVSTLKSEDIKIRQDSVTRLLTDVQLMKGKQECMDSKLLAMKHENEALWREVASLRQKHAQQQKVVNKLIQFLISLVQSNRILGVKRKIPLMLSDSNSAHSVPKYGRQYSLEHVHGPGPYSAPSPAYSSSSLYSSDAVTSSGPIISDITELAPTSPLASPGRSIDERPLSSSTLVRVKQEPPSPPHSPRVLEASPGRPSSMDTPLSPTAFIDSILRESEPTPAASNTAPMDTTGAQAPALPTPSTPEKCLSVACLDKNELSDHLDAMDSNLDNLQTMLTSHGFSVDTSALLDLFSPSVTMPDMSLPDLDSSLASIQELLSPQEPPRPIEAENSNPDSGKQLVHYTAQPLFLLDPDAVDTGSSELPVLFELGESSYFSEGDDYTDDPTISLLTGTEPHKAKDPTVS
Description: inhibition of MG132-induced HSE-luciferase signal, confirmation, cell-based, NIH3T3, luminescence, dose retest (AID 2382).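 Note: NIH3T3 fibroblasts with HSF1-driven luciferase reporter stressed by proteasome inhibitor MG132; luminescence from HSF1-driven luciferase expression after 8 hours of MG132 stress.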 It is filed as functional.

A further assay concerns the target Paired box protein Pax-8 (Homo sapiens, UniProt Q06710). Description: inhibitors of PAX8-driven TPO luciferase reporter, dose response, RMG-I cells, cherry-pick (AID 687027).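 Note: luciferase reporter driven by Pax8 target thyroperoxidase promoter measured by SteadyGlo luminescence.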 It is filed as functional, cell-based.
The nature of assay [8]: HEp-2 cell cytotoxicity, dose response, cytotoxicity control for RSV inhibitor project, HTS (AID 2410). The assay is classed as functional. Conditions: human respiratory syncytial virus.
A short description of assay [9]: C. albicans growth with fluconazole, confirmation, fluorescence, retest (AID 2467). It is filed as functional, cell-based.
Assay [10] can be described thus: NIH-3T3 fibroblast cytotoxicity, dose response, cytotoxicity control, cell-based, fluorescence, Alamar Blue, secondary assay (AID 2327).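 Note: NIH-3T3 mouse fibroblasts cultured with fluconazole at 8 µg/mL.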 It is filed as functional.

The source made the active and inactive calls. Cut-off read from the data, not from the text of the source, for most assays here: actives have a measured EC50 and inactives only a lower limit.

Sequence of Paired box protein Pax-8 (Q06710 whole entry): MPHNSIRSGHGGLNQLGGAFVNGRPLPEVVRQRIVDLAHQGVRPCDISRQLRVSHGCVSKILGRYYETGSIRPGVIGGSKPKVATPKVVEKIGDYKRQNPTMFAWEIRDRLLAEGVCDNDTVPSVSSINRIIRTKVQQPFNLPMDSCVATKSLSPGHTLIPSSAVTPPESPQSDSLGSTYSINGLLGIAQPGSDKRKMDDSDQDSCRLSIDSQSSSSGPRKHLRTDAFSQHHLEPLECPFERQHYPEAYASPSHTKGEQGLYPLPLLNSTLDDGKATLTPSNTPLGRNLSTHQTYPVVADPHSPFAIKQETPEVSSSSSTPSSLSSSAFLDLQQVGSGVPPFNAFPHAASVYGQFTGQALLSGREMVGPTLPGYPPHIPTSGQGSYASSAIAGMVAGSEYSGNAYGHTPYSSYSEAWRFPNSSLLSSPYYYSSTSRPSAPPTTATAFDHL
Sequence of Cytochrome P450 2C9 (P11712 whole entry): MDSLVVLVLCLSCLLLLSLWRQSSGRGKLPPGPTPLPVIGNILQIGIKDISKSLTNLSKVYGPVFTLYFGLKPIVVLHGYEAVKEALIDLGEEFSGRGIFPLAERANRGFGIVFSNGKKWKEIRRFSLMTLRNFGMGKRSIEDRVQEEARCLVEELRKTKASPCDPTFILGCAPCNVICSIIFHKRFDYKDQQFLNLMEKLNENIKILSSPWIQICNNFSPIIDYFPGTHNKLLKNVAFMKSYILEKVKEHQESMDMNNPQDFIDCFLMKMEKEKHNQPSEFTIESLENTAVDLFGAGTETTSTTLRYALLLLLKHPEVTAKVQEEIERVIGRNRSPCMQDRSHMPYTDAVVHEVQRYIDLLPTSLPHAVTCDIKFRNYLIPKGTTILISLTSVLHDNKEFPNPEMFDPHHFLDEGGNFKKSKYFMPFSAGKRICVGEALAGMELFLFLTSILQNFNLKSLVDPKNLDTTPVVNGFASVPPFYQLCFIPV

For `CC(=O)/N=c1/sc(S(N)(=O)=O)nn1C` [METHAZOLAMIDE], the IC50 in [1] was > 47.1 µM (inactive). Besides, the AC50 at Cytochrome P450 2C9 is 12.6 µM (inconclusive). Moreover, the EC50 in [2] was > 53 µM (inactive).
As to `COc1ccc(/N=C/C=C2\C=C(c3ccccc3)OC(C)(C)O2)cc1`, the EC50 was > 120 µM (not active) in the assay with H4, 10.2 µM (active) in assay [3] and > 120 µM (not active) in [4].
In the case of `COc1ccc(CN2CC(=O)N(c3cccc(Cl)c3)C2=S)cc1OC`, in assay [1], the IC50 was > 47.1 µM (inactive). Also, the EC50 in [2] was > 53 µM (inactive).
The corresponding values for `O=C1N=C(N/N=C/c2ccc(F)cc2)SC1c1ccccc1` (stereo not drawn) are > 47.1 µM (inactive) and > 53 µM (inactive).
`COc1ccc(-[n+]2c(-c3ccc(Br)cc3)cn3c2CCCCC3)cc1`: the results for the EC50 in assay [5] and in assay [6] were 0.552 µM (active) and > 60 µM (not active), respectively. In the assay on INS1, the AC50 is 1.15 µM (active).
Regarding `Nc1c(C(=O)N2CCOCC2)sc2nc3c(cc12)CCC3`, the IC50 in assay [1] is > 47.1 µM (inactive). Further, the EC50 in assay [2] was > 53 µM (inactive).
Regarding `CCCC12C(=O)C(C)(C(c3ccccc3)=C1c1ccccc1)C1C(=O)N(c3ccc(C)cc3)C(=O)C12` (stereo not drawn), in the assay on INS1, the AC50 is 4.16 µM (active).
Turning to `c1ccc2oc(C3=NN=C(NC4CC4)SC3)cc2c1`, the EC50 (in the assay on H4; in assay [3]; in assay [4]) was > 120 µM (not active) in each case.
`OC1(C(F)(F)F)CC(O)(C(F)(F)F)n2nc(-c3ccccc3)cc2N1` (stereo not drawn): the EC50 in the assay on H4 is 11 µM (active); in assay [3], > 120 µM (not active); in [4] it was > 120 µM (not active).
As to `Cc1ccc(C)c(N2CCN(C(=O)CCCOc3cc(=O)n(C)c4ccccc34)CC2)c1`, the half-maximal activity concentration (AC50) in the assay on INS1 was 2.78 µM (active).
As to `Cc1nn2c3ccccc3nc2n(C)c1=O`, in assay [1], the IC50 was > 47.1 µM (inactive). Moreover, the EC50 in assay [2] was > 53 µM (inactive).
For the compound `COc1ccc(-c2nnc3c4ccccc4c(C)nn23)cc1`, the EC50 is > 120 µM (not active) in the assay on H4, 18.6 µM (active) in assay [3] and 13.3 µM (active) in assay [4].
As for `Cc1cc(S(=O)(=O)Nc2ccc(C(=O)NCC(C)(C)N3CCOCC3)cc2)ccc1F`, in assay [1], the IC50 is > 47.1 µM (inactive). Besides, the EC50 in assay [7] was > 195 µM (not active); in [2], > 53 µM (inactive).
For `C[C@@H]1CCCCO[C@@H](CN(C)Cc2ccc(C(F)(F)F)cc2)[C@H](C)CN([C@@H](C)CO)C(=O)c2cc(NS(=O)(=O)c3ccccc3)ccc2O1`, the AC50 at Paired box protein Pax-8 was 4.66 µM (active).
`CSC1=NCCN1C(=O)Cc1ccc(Cl)cc1`: the IC50 in assay [1] is > 47.1 µM (inactive). Further, the EC50 in [2] is > 53 µM (inactive).
For `COCCNC(=O)CSC1=N/C(=C/c2ccc(Cl)c(Cl)c2)C(=O)N1c1ccccc1F`, in assay [8], the CC50 is 47.8 µM (active). The EC50 in assay [7] is 20 µM (active). In addition, the AC50 in the assay on INS1 is 8.64 µM (active).
For the compound `Cc1ccc(S(=O)(=O)N(CC(=O)N=Nc2c(O)[nH]c3ccccc23)c2ccc(C)c(C)c2)cc1`, in assay [1], the IC50 is 3.25 µM (active). Moreover, the EC50 in assay [2] is > 53 µM (inactive).
With `CC(C)=CCc1cc2c(=O)c3c(O)c4c(cc3oc2c(O)c1O)OC(C)C4(C)C` (stereo not drawn) [GERONTOXANTHONE G], the EC50 was 2.64 µM (active) in assay [5], 6.31 µM (active) in [6], > 38 µM (not active) in assay [9] and > 160 µM (inactive) in assay [10]. In addition, the AC50 in the assay on INS1 is 5.18 µM (active).
For `CCCCON1C(=O)c2cccc3cccc(c23)C1=O`, the IC50 in [1] is > 47.1 µM (inactive). For the same compound, the EC50 in [2] was > 53 µM (inactive).
The corresponding values for `O=C(NC1CCCCC1)NS(=O)(=O)c1ccc2c(c1)CCC2` [GLYHEXAMIDE] are > 47.1 µM (inactive) and > 53 µM (inactive).

One may read the AC50 as the concentration at which the activity in the assay is half-maximal. As usually defined, the CC50 is the concentration at which the toxic effect on the cells reaches its halfway point.
